Where a SMILES comes first, the peptide text is derived from it. Bridges are numbered along the chain shown (N, C = ends). Where no end group is shown, it is not given here. [ ]: non-standard residue; d: D form. d2Nal = N[C@H](Cc1ccc2ccccc2c1)C(=O)O; dNle = CCCC[C@@H](N)C(=O)O
Columns and labels:
[1] = molecular target: T1, IL17A (Homo sapiens, UniProt Q16552); test: ELISA competition assay against negative control antibody CAT2200 (non-overlapping epitope) on IL17A; conditions: antibody binding a non-overlapping epitope on IL17A
T1 sequence (Q16552 24-155): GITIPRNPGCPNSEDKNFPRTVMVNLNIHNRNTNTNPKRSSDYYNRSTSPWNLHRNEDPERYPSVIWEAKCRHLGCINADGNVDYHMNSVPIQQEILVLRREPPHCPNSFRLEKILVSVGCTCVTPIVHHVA
Source text: (§1) In order to assess the potential binding of the D-Proteins to IL17A at the binding site of CNT06785, the D-Proteins were screened in an ELISA competition assay against a known competitor of antibody CNT06785, Centyrin WPW-His. To show the specific binding to the epitope, negative control antibody CAT2200 was taken along that binds to a different, non-overlapping epitope on IL17A. […] Upper graphs show competition with centyrin WPW, lower graphs—with antibody CAT2200 binding to a non-overlapping epitope. Response is plotted as a function of logarithm of concentration.

[2] = molecular target: T1, IL17A; test: ELISA competition assay against Centyrin WPW-His on IL17A; format: binding
Source text: as §1

[3] = tested on: Influenza hemagglutinin; test: ELISA assay for competition with designer protein HB80.4 (stem epitope); format: binding; conditions: for competition with HB80.4 (result in words): stem binding HB80.4, competition ELISA on HA
[4] = tested on: Influenza hemagglutinin; test: ELISA competition with head binding antibody CR11054 (non-overlapping epitope); conditions: non-overlapping epitope on HA

Compound | competition with CAT2200 (result in words) [1] | competition with centyrin WPW (result in words) [2] | competition with HB80.4 (result in words) [3] | competition with CR11054 (result in words) [4] | pIC50, competition with HB80.4 ([3]; competition ELISA on HA) | IC50 ([3]; competition ELISA on HA, read-out: IC50 given in brackets after pIC50, competition with HB80.4 (converted))
H-rsciatepksfctaflckhlmkarlsycrktcGtc-OH (H-[dR][dS][dC][dI][dA][dT][dE][dP][dK][dS][dF][dC][dT][dA][dF][dL][dC][dK][dH][dL][dM][dK][dA][dR][dL][dS][dY][dC][dR][dK][dT][dC]G[dT][dC]-OH; cysteine pairing not given here) [DP141063] | lack of activity | lack of activity | – | – | – | –
racprilkkcrrdsdcpGecickGnGycG (RACPRILKKCRRDSDCPGECICKGNGYCG) [DP141753, wild-type scaffold 2LJS as D-protein, negative control, reference compound] | – | – | no competition until the highest concentration | – | – | –
H-rscqatepkyfctaflckhlmkarlsycrktcGtc-OH (H-[dR][dS][dC][dQ][dA][dT][dE][dP][dK][dY][dF][dC][dT][dA][dF][dL][dC][dK][dH][dL][dM][dK][dA][dR][dL][dS][dY][dC][dR][dK][dT][dC]G[dT][dC]-OH; cysteine pairing not given here) [DP141065] | lack of activity | lack of activity | – | – | – | –
H-rscidtipksrctafqckhsmkyrlsfcrktcGtc-OH [DP141050, reference compound] | lack of activity | lack of activity | – | lack of activity | – | –
rfcpsibkkcrrdsdcpG!cickGnGycG (RFCPSIXKKCRRDSDCPGXCICKGNGYCG; not fully specified (some residues); printed as rfcpsibkkcrrdsdcpG!cickGnGycG; cysteine pairing not given here) [DP142093, optimized HA hit, D-protein on scaffold 2LJS] | – | – | clear S-curve | no competition | 4.1 | 88 µM
CCCC[C@H]1NC(=O)[C@@H](CCCCN)NC(=O)[C@@H](CCSC)NC(=O)[C@@H](CC(C)C)NC(=O)[C@@H](Cc2c[nH]cn2)NC(=O)[C@@H](CCCCN)NC(=O)[C@H]2CSSC[C@H]3NC(=O)[C@@H]([C@H](C)O)NC(=O)[C@@H](CCCCN)NC(=O)[C@@H](CCCNC(=N)N)NC(=O)[C@@H](CSSC[C@@H](NC(=O)[C@@H](Cc4ccccc4)NC(=O)[C@@H](CC(C)C)NC(=O)[C@@H](CCCCN)NC(=O)[C@H]4CCCN4C(=O)[C@@H](Cc4ccccc4)NC(=O)[C@@H]([C@H](C)O)NC(=O)[C@@H](C)NC(=O)[C@@H](CCC(N)=O)NC(=O)[C@H](NC(=O)[C@@H](CO)NC(=O)[C@H](N)CCCNC(=N)N)CSSC[C@H](C(=O)O)NC(=O)[C@@H]([C@H](C)O)NC(=O)CNC3=O)C(=O)N[C@H]([C@H](C)O)C(=O)N[C@H](C)C(=O)N[C@H](Cc3ccccc3)C(=O)N[C@H](CC(C)C)C(=O)N2)NC(=O)[C@@H](Cc2ccc3ccccc3c2)NC(=O)[C@@H](CO)NC(=O)[C@@H](CC(C)C)NC(=O)[C@@H](CCCNC(=N)N)NC1=O [DP142137, H-rscqatfpklfctaflckhlmkxrls<crktcGtc-OH] (H-[dR][dS][dC][dQ][dA][dT][dF][dP][dK][dL][dF][dC][dT][dA][dF][dL][dC][dK][dH][dL][dM][dK][dNle][dR][dL][dS][d2Nal][dC][dR][dK][dT][dC]G[dT][dC]-OH; disulfide 3-35, 12-28, 17-32) | lack of activity | clear binding curve | – | – | – | –
